On the set-up of data set [1]: method as in earlier work. To be noted: formulated with phosphate acid; cited from earlier work.
For another data set, the target named is T1, GSS (Homo sapiens, UniProt P48637).
T1 construct: purchased Abcam
T1 sequence (P48637 1-474): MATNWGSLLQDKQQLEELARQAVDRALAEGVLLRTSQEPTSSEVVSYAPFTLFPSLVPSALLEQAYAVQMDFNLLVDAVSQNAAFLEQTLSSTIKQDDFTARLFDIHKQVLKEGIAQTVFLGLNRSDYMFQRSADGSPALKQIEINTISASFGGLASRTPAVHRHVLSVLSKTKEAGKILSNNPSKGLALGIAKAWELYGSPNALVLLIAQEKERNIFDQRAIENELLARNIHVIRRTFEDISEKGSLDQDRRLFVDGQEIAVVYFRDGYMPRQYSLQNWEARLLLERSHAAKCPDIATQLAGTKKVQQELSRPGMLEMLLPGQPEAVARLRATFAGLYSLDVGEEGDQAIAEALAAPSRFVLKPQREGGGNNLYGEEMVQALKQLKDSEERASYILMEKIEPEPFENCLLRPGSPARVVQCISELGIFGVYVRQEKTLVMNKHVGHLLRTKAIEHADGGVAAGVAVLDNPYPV
Briefly: BLI binding assay, GSS. As for the experimental part: The binding kinetics of PepE or PepA to purified recombinant proteins were determined using BLI on an Octet RED 96 system (ForteBio, Shanghai, China) following the manufacturer's protocol. All interaction analyses were performed at 25 °C in PBS with 0.2% DMSO. Purified recombinant proteins (0.9 μM, the TrxR1 full length and TrxR1 protein fragment were pre-reduced by 400 μM of NADPH before test) were pre-labeled with biotin using […] (Abcam) following the manufacturer's instruction. Loading of the Dip and Read Super Streptavidin (SSA) Biosensors (ForteBio) were conducted by exposing biotinylated proteins to biosensor tips for 2 h. The 96-well microplates used in the Octet were filled with 200 μL sample or buffer per well and agitated at 1000 rpm. The loaded biosensors were washed in buffer for 600 s and transferred to wells containing PepE at concentrations of 0.625, 1.25, 2.5, 5, and 10 μM or PepA at concentrations of 1.25, 2.5, 5, 10 and 20 μM, respectively, in the buffer. […] Reference measurements were conducted using the buffer instead of PepE (or PepA). A parallel set of SA unloaded biosensors was prepared to act as a control. The sample-sensorgrams were corrected by subtracting the double reference curve. Kinetic parameters (Kon and Kdis) and affinity (KD) were determined from a global fit to a 1:1 binding model of the data between proteins and PepE using Octet software (ForteBio).
(In BLI a coated tip is dipped into the sample, and binding shifts an interference pattern.)

The target in the next data set is T2, Sec residue in TrxR1 (Homo sapiens, UniProt Q16881).
T2 construct: purchased Abcam ab204206
T2 sequence (Q16881 1-499 isoform Q16881-5): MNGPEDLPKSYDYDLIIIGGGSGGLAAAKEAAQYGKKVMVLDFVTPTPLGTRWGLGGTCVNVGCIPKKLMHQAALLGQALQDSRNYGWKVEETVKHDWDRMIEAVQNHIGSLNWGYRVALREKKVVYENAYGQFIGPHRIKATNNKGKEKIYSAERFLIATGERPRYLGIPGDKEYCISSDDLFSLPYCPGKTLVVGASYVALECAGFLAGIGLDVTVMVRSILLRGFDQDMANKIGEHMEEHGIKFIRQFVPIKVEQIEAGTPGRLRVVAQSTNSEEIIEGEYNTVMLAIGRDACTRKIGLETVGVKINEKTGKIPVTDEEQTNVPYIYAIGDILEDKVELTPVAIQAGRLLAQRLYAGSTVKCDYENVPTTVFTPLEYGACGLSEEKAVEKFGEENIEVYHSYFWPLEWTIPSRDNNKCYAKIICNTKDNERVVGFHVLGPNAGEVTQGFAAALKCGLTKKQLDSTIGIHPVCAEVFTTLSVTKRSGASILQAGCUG
Briefly: BIAM labeling assay. Particulars: pH 6.5; PepE 1, 5, 10 μM; DNCB 5 μM. It is filed as biochemical. As for the experimental part:
To further assess whether the Sec residue in TrxR1 was the modified site of PepE. The BIAM labeling assay was performed according to previous report. Briefly, 100 μM BIAM stock solution in 100 mM Tris-HCl, 1 mM EDTA buffer (pH = 6.5) was freshly prepared before each test. The TrxR1 protein (1 μM) was incubated with different concentrations (1, 5, 10 μM) of PepE or 5 μM of DNCB (positive control) and DMSO (negative control) in 50 mM Tris-HCl, 1 mM EDTA buffer (pH = 7.5) and 400 μM NADPH at 37 °C. After incubation, 4 μL of the reaction mixture was withdrawn and added mixed with 20 μM of BIAM solution in 100 mM Tris-HCl, 1 mM EDTA assay buffer (pH = 6.5) for 30 min at 37 °C to allow selective alkylation of free Sec residues. The reaction was stopped by adding the IAA solution (final concentration 50 mM). The samples were then denatured in SDS buffer, boiled and subjected to SDS-PAGE and western-blotting on a 7.5% gel, and the separated proteins were transferred to nitrocellulose membrane. The enzymes labeled with BIAM were detected with HRP-conjugated streptavidin and enhanced chemiluminescence detection. The bands were analyzed using Gel-pro 32 software.

The target in a further data set is T3, recombinant human TrxR1 (Homo sapiens, UniProt Q16881).
T3 construct: purchased Abcam ab204206
T3 sequence (Q16881 1-499 isoform Q16881-5): T2 sequence (Q16881 1-499 isoform Q16881-5)
Briefly: NADPH oxidative activity assay. It is filed as biochemical. To be noted: 5 μM, TrxR1 0.2 μM. As for the experimental part: The NADPH oxidative activity by TrxR1 in the presence of PepE was performed according to the previous reports. Briefly, the recombinant human TrxR1 protein (0.2 μM) was incubated with either 5 μM of PepE or 5 μM of DNCB at room temperature in assay buffer (50 mM Tris-HCl, 1 mM EDTA, pH = 7.5), same amount of DMSO was used as negative control. NADPH was then added (final concentration was set at 200 μM) and the absorbance was monitored at 340 nm for 30 min using the SpectraMax i3x microplate reader (Molecular Devices), the molar extinction coefficient was set as 6200 M^−1cm^−1. The linear decrease in NADPH absorbance was used for calculating NADPH consumption rate and expressed as NADPH μM^−1min^−1enzyme μM^−1.

As for `COc1cc(C(c2cc(OC)c3c(c2)OCO3)[C@@H]2COC(=O)[C@H]2CN(C)CCO)cc2c1OCO2` [DMAPE, (2S,3S)-6-Methyl (hydroxyethyl) amino-2,6-dihydropeperomin E], in data set [1], the “increased solubility in water compared to PepE” value is reported as “more than 1000 fold”.

With `C=C1C(=O)OC[C@H]1C(c1cc(OC)c2c(c1)OCO2)c1cc(OC)c2c(c1)OCO2` [PepE, Peperomin E], at GSS, the affinity, expressed as Kd, was 272 µM and the kon (commonly a measure of how fast the partners come together) stood at 2740 M⁻¹ s⁻¹. Besides, the koff on GSS (read-out: Kdis) was found to be 0.745 s⁻¹. Moreover, on Sec residue in TrxR1, the “BIAM alkylation of Sec residue of TrxR1” value was “significantly block”. Further, the “consumption of NADPH by TrxR1 relative to the control” value at recombinant human TrxR1 is approximately 7 fold.

Values taken from paper PMC6434189, “Peperomin E and its orally bioavailable analog induce oxidative stress-mediated apoptosis of acute myeloid leukemia progenitor cells by targeting thioredoxin reductase” (Redox Biology, 2019).
